Columns and labels:
MC38-OVA tumor cells = assay: Murine MC38-OVA tumor model, in vivo PD-1 blockade; conditions: OVA immunized mice; 3 mM MgCl2 or NaCl i.t. every third day, 8 cycles; anti-PD-1 Ab or isotype 200 μg i.p. day 9, 12, 15
Protocol: FIG. 1: Intratumoral magnesium administration improves adaptive anti-tumor immunity. (a) Schematic of experimental design. B1/6 mice, either immunized with OVA or left untreated, were inoculated subcutaneously with MC38-OVA tumor cells bilaterally on the flanks. From day 7, injection of 3 mM NaCl solution was applied in left flank tumor, whereas 3 mM MgCl2 solution was injected in contralateral tumor. This regimen was repeated every third day for a total of 8 cycles. (b) Tumor growth curves in non-immunized mice (n=20) (left panel), and immunized mice (n=19) (right panel). (c) Tumor growth curves in ±CD8 depleted mice (n=6-17). Results were pooled from 2 independent experiments, with n=6-12 mice each. (d) Absolute numbers of tumor-infiltrating CD8^+ T cells. (e) Number of tumor-infiltrating CD8^+ T cells positive for Ki67 (left panel), Granzyme B (middle panel) and CD25 (right panel). (f) Cell number of tumor-infiltrating CD8^+ T cells expressing PD-1 and Tim3. (g) Schematic of experimental design. B1/6 mice, immunized with OVA, were inoculated subcutaneously with MC38-OVA tumor cells unilaterally on the flank. From day 5, intratumoral injections of either 3 mM NaCl or 3 mM MgCl2 were initiated, and repeated every third day for 8 cycles. Mice were additionally injected with 200 μg i.p. of isotype control (IgG2a) or anti-PD-1 Ab on day 9, 12, and 15. […]

human EM CD8 T cells = assay: Cytometric bead array of cytokines in EM CD8 T cell culture supernatants; assay type: cell-based; conditions: Mg^2+-restricted (0 mM) vs 1.2 mM Mg^2+; 24 h
Protocol: FIG. 2: Extracellular magnesium promotes memory-specific activation via LFA-1. Glycolytic switch of human EM CD8 T cells (a) and naïve CD8 T cells (b) subsets upon injection of anti-CD3 Ab only, or anti-CD3 and anti-CD28 Ab, was assessed by metabolic flux analysis in medium containing either 1.2 mM Mg^2+, 0 mM Mg^2+, or medium which was reconstituted from 0 mM to 1.2 mM Mg^2+ immediately prior to activation (0→1.2 mM Mg^2+). (a) Results for human effector memory (EM) and (b) for human naïve CD8 T cells. Glycolytic switch was quantified by subtracting […] measurements. (c) Flow cytometric analysis of surface activation markers on human EM CD8 T cells 24 hours after activation by plate-bound anti-CD3 Ab and soluble anti-CD28 Ab, in 1.2 mM and 0 mM Mg^2+ media, respectively. (d) Abundance of inflammatory cytokines in corresponding EM CD8 T cell culture supernatants, determined by CBA. (e) CD11a (LFA-1) surface expression on human naïve and EM CD8 T cells as well PHA T cell blasts. Flow cytometry-based assessment of total LFA-1 expression assessed by mAb TS2/4 (f), closed conformation of αL by mAb HI111 (g), extended conformation of LFA-1 by mAb Kim127 (h), open head-piece conformation of LFA-1 by mAb m24 (i), phosphorylation of focal adhesion kinase (FAK) […] as well TNF expression (k)±TCR-induced activation in different extracellular Mg^2+ concentrations. (l) Flow cytometry-based assessment of LFA-1 with open-head piece conformation on human EM and naïve CD8 T cells using the open head-piece reporter mAb m24. (m) Assessment of glycolytic switch of EM CD8 T cells. (n) Assessment of glycolytic switch of naïve CD8 T cells. […] Cytokine concentrations in cell culture supernatants were determined using the LegendPlex cytrometric bead Array human […]) according to manufacturer's instructions.

[1] = system: murine WT and LFA-1^−/− CTLs; assay: Degranulation marker CD107a on murine WT and LFA-1−/− CTLs; assay type: cell-based; conditions: 8 h anti-CD3/anti-CD28 Ab; 0 mM vs 1.2 mM Mg^2+

## [Mg+2] [Mg^2+, Magnesium]
MC38-OVA tumor cells
  Host survival: significantly improved animal survival
  Tumor growth: improving immune control significantly
Human EM CD8 T cells
  IFNγ secretion: decreased production
  IL-2 secretion: decreased production
  TNF secretion: decreased production
[1]
  CD107a degranulation of LFA-1^−/− CTLs: unaffected
  CD107a degranulation of WT CTLs: reduced CTL degranulation

From patent publication US20240010726A1, “LFA-1 SIGNALLING MEDIATOR FOR USE IN CANCER THERAPY” (Universität Basel, priority 2020, published 2024)
